pEC50: −log10 of the molar value. Where two headings read alike, the source gives them in different places.
Assays:
[1] = Compound toxicity in mock-infected MT-2 cells, XTT method; type: cell-based; details: human
Protocol: (§1) The human T-cell line, MT-2, was maintained in continuous culture with complete medium (RPMI 1640 with 10% fetal calf serum supplemented with L-glutamine at 5% CO2 and 37° C.). Test samples were first dissolved in dimethyl sulfoxide at a concentration of 10 mg/mL to generate master stocks with dilutions made into tissue culture media to generate working stocks. The final drug concentrations used for screening were 25. 2.5, 0.25, and 0.025 μg/mL. For agents found to be active, additional dilutions were prepared for subsequent testing so that an accurate EC50 value (defined below) could be determined. Test samples were prepared in duplicate (45 μL/well) and to each sample well was added […] of media containing MT-2 cells at 3×10^5 cells/mL and 45 μL of virus inoculum (HIV-1 IIIIB isolate) at a concentration necessary to result in 50% killing of the cell targets at 5 days post-infection (PI). Control wells containing virus and cells only (no drug) and cells only (no virus or drug) were also prepared. A second set of samples were prepared identical to the first and were added to cells under identical conditions without virus (mock infection) for toxicity determinations (IC50 defined below). In addition, AZT was also assayed during each experiment as a positive drug control. On day 5 PI, virus-induced cell killing was determined by measuring cell viability using the XTT method (Roehm, N., et al., supra). Compound toxicity was determined by XTT using the mock-infected samples. If a test sample had suppressive capability and was not toxic, its effects were reported in the following terms: IC50, the concentration of test sample which is toxic to 50% of the mock-infected MT-2 cells; EC50, the concentration of the test sample that is able to suppress HIV replication by 50%; and the Therapeutic index (TI) the ratio of the IC50 to EC50. The effective (EC50) and inhibitory (IC50) concentrations for anti-HIV activity and cytotoxicity, respectively, were determined (Roehm, N., et al., supra).

[2] = test system: HIV-1 IIIIB isolate; experiment: HIV-1 inhibition: suppression of virus-induced cell killing in MT-2 cells, XTT method; type: cell-based; details: Human immunodeficiency virus 1, IIIB, MT2, 120 h, read-out: anti-HIV activity (EC50)
Protocol: The biological evaluation of HIV-1 inhibition can be carried out as follows according to established protocols (Montefiori, D. C., et al., Clin. Microbiol. 26:231-235 (1988); Roehm, N., et al. J. Immunol. Methods 142:257-265 (1991)).
as §1

[3] = test system: HIV-1 replication in H9 lymphocyte cells; details: cited from earlier work

| SMILES | IC50 at 5 days [1] | pEC50 [2] | T.I. ([3]; H9 lymphocyte cells) | pEC50 ([3]; unit inferred, Fujioka et al. 1994, read-out: EC50, anti-HIV activity) | pEC50 ([3]; H9 lymphocyte cells, read-out: EC50, inhibitory activity against HIV-1 replication) |
| --- | --- | --- | --- | --- | --- |
| C=C(C)[C@@H]1CC[C@]2(CNC(=O)OC(C)(C)C)CC[C@]3(C)[C@H](CC[C@@H]4[C@@]5(C)CC[C@H](OC(=O)CC(C)(C)CC(=O)O)C(C)(C)[C@@H]5CC[C@]43C)[C@@H]12 [Compound 1065, tert-Butoxycarboxamide N-[3-O-(3′,3′-dimethylglutaryl)lup-20(29)-en-28-yl]] | 5 to 100 µM | 6.52 to 9.00 |  |  |  |
| C=C(C)[C@@H]1CC[C@]2(C(=O)OCCC#N)CC[C@]3(C)[C@H](CCC4[C@@]5(C)CC[C@H](OC(=O)CC(C)(C)CC(=O)O)C(C)(C)C5CC[C@]43C)C12 (some centres unmarked) [Compound 206, 3-O-(3′,3′-Dimethylglutaryl)betulinic acid 2-cyanoethyl ester] | 5 to 100 µM | 6.52 to 9.00 |  |  |  |
| CC(C)[C@@H]1CC[C@]2(C(=O)O)CC[C@]3(C)C(CCC4[C@@]5(C)CC[C@H](O)C(C)(C)C5CC[C@]43C)C12 (some centres unmarked) [dihydrobetulinic acid] |  |  | 14 | 6.05 |  |
| CC(=O)[C@@H]1CC[C@]2(C(=O)O)CC[C@]3(C)[C@H](CC[C@@H]4[C@@]5(C)CC[C@H](O)C(C)(C)[C@@H]5CC[C@]43C)[C@@H]12 [platanic acid] |  |  | 14 |  | 5.19 |
| C=C(C)[C@@H]1CC[C@]2(CN)CC[C@]3(C)[C@H](CC[C@@H]4[C@@]5(C)CC[C@H](OC(=O)CC(C)(C)CC(=O)O)C(C)(C)[C@@H]5CC[C@]43C)[C@@H]12 [Compound 49, 3-O-(3′,3′-dimethylglutaryl)lup-20(29)-en-28-ylamine] | 5 to 100 µM | 6.52 to 9.00 |  |  |  |
| C=C(C)[C@@H]1CC[C@]2(C(=O)OCCOC)CC[C@]3(C)[C@H](CC[C@@H]4[C@@]5(C)CC[C@H](OC(=O)CC(C)(C)CC(=O)O)C(C)(C)[C@@H]5CC[C@]43C)[C@@H]12 [Compound 223, 3-O-(3′,3′-Dimethylglutaryl)betulinic acid 2-methoxyethyl ester] | 5 to 100 µM | 6.52 to 9.00 |  |  |  |
| C=C(C)[C@@H]1CC[C@]2(C(=O)OC3CCN(C(=O)OC(C)(C)C)C3)CC[C@]3(C)[C@H](CC[C@@H]4[C@@]5(C)CC[C@H](OC(=O)CC(C)(C)CC(=O)O)C(C)(C)[C@@H]5CC[C@]43C)[C@@H]12 (stereo partly drawn) [Compound 227, 3-O-(3′,3′-Dimethylglutaryl)betulinic acid (R)-3-[1-(tert-butoxycarbonyl)-pyrrolidinyl] ester] | 5 to 100 µM | 6.52 to 9.00 |  |  |  |
| C=C(C)[C@@H]1CC[C@]2(C(=O)OCCN(C)C)CC[C@]3(C)[C@H](CCC4[C@@]5(C)CC[C@H](OC(=O)CC(C)(C)CC(=O)O)C(C)(C)C5CC[C@]43C)C12 (some centres unmarked) [Compound 218, 3-O-(3′,3′-Dimethylglutaryl)betulinic acid 2-N,N-dimethylaminoethyl ester] | 5 to 100 µM | 6.52 to 9.00 |  |  |  |
| C=C(C)[C@@H]1CC[C@]2(C(=O)OC3CCOC3)CC[C@]3(C)[C@H](CC[C@@H]4[C@@]5(C)CC[C@H](OC(=O)CC(C)(C)CC(=O)O)C(C)(C)[C@@H]5CC[C@]43C)[C@@H]12 (mixture of isomers) [Compound 231, 3-O-(31,3′-Dimethylglutaryl)betulinic acid 3-(R/S)-3-(tetrahydrofuranyl) ester] | 5 to 100 µM | 6.52 to 9.00 |  |  |  |
| C=C(C)[C@@H]1CC[C@]2(C(=O)OCC)CC[C@]3(C)[C@H](CC[C@@H]4[C@@]5(C)CC[C@H](OC(=O)CC(C)(C)CC(=O)O)C(C)(C)[C@@H]5CC[C@]43C)[C@@H]12 [Compound 235, 3-O-(3′,3′-Dimethylglutaryl)betulinic acid ethyl ester] | 5 to 100 µM | 6.52 to 9.00 |  |  |  |

Reference: patent US20060205697A1, “Novel betulin derivatives, preparation thereof and use thereof” (priority 2004, published 2006)
